Measured values: patent US11753397B2, “Cereblon binders for the degradation of ikaros” (C4 Therapeutics, Inc., priority 2018, dated 2023)
Structures can show the parent of a compound that is named as a salt.

Tested on: NCIH929.1 cells
Experiment: Cell viability assay (CellTiter-Glo 2.0, ATP quantification)
Format: cell-based
Conditions: NCIH929.1 cell viability, CellTiter-Glo 2.0, 96 hr incubation, top concentration 1 μM
Summary of the method: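 Read-out is CellTiter-Glo 2.0 luminescence (ATP), after 96 h compound exposure at 37 °C, with a day-0 plate giving the CT0 baseline. Duplicate 10-point half-log titration from 1 μM applied to 750 cells/well in RPMI, 10% FBS, 0.05 mM 2-mercaptoethanol.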

CC1(C(=O)N2CCC(n3cc(CNc4cccc5c4C(=O)N(C4CCC(=O)NC4=O)C5=O)cn3)CC2)CCCC1 (stereo not drawn) [Compound 62, 2-(2,6-dioxopiperidin-3-yl)-4-(((1-(1-(1-methylcyclopentane-1-carbonyl)piperidin-4-yl)-1H-pyrazol-4-yl)methyl)amino)isoindoline-1,3-dione]
GI50: < 1 nM

CC(C)(C)OC(=O)N1CCC(F)(C(=O)N2CCC(n3cc(CNc4cccc5c4C(=O)N(C4CCC(=O)NC4=O)C5=O)cn3)CC2)CC1 (stereo not drawn) [Compound 102, tert-butyl 4-(4-(4-(((2-(2,6-dioxopiperidin-3-yl)-1,3-dioxoisoindolin-4-yl)amino)methyl)-1H-pyrazol-1-yl)piperidine-1-carbonyl)-4-fluoropiperidine-1-carboxylate]
GI50: < 100 nM

CCc1ccc2c(CC(=O)N3CCC(n4cc(CNc5cccc6c5C(=O)N(C5CCC(=O)NC5=O)C6=O)cn4)CC3)coc2c1 (stereo not drawn) [Compound 114, 2-(2,6-dioxoopiperidin-3-yl)-4-(((1-(1-(2-(6-ethylbenzofuran-3-yl)acetyl)piperidin-4-yl)-1H-pyrazol-4-yl)methyl)amino)isoindoline-1,3-dione]
GI50: < 100 nM

O=C1CCC(N2C(=O)c3cccc(NCc4cnn(C5CCN(CC(F)(F)F)CC5)c4)c3C2=O)C(=O)N1 (stereo not drawn) [Compound 160, 2-(2,6-Dioxo-piperidin-3-yl)-4-({1-[1-(2,2,2-trifluoro-ethyl)-piperidin-4-yl]-1H-pyrazol-4-ylmethyl}-amino)-isoindole-1,3-dione]
GI50: < 100 nM

C#Cc1c(CNc2cccc3c2C(=O)N(C2CCC(=O)NC2=O)C3=O)cnn1C1CCN(C(=O)C2(C)CCC2)CC1 (stereo not drawn) [Compound 192, 2-(2,6-Dioxopiperidin-3-yl)-4-(((5-ethynyl-1-(1-(1-methylcyclobutane-1-carbonyl)piperidin-4-yl)-1H-pyrazol-4-yl)methyl)amino)isoindoline-1,3-dione]
GI50: < 100 nM

CC1CC1C(=O)N1CCC(n2cc(CNc3cccc4c3C(=O)N(C3CCC(=O)NC3=O)C4=O)cn2)CC1 (stereo not drawn) [Compound 45, 2-(2,6-dioxopiperidin-3-yl)-4-(((1-(1-(2-methylcyclopropane-1-carbonyl)piperidin-4-yl)-1H-pyrazol-4-yl)methyl)amino)isondoline-1,3-dione]
GI50: < 100 nM

Cc1ccc(OC(C)(C)C(=O)N2CCC(n3cc(CNc4cccc5c4C(=O)N(C4CCC(=O)NC4=O)C5=O)cn3)CC2)cc1C (stereo not drawn) [Compound 110, 4-(((1-(1-(2-(3,4-dimethylphenoxy)-2-methylpropanoyl)piperidin-4-yl)-1H-pyrazol-4-yl)methyl)amino)-2-(2,6-dioxopiperidin-3-yl)isoindoline-1,3-dione]
GI50: < 100 nM

O=C1CCC(N2C(=O)c3cccc(NCc4cnn(C5CCN(C(=O)C6CCOCC6)CC5)c4)c3C2=O)C(=O)N1 (stereo not drawn) [Compound 11, 2-(2,6-dioxopiperidin-3-yl)-4-(((1-(1-(tetrahydro-2H-pyran-4-carbonyl)piperidin-4-yl)-1H-pyrazol-4-yl)methyl)amino)isoindoline-1,3-dione]
GI50: < 100 nM

CC1(C(=O)N2CCC(n3ncc(CNc4cccc5c4C(=O)N(C4CCC(=O)NC4=O)C5=O)c3C#CC3CC3)CC2)CCC1 (stereo not drawn) [Compound 190, 4-(((5-(Cyclopropylethynyl)-1-(1-(1-methylcyclobutane-1-carbonyl)piperidin-4-yl)-1H-pyrazol-4-yl)methyl)amino)-2-(2,6-dioxopiperidin-3-yl)isoindoline-1,3-dione]
GI50: < 100 nM

O=C1CCC(N2C(=O)c3cccc(NCc4cnn(C5CCCCC5)c4)c3C2=O)C(=O)N1 (stereo not drawn) [Compound 158, 4-[(1-cyclohexylpyrazol-4-yl)methylamino]-2-(2,6-dioxo-3-piperidyl)isoindoline-1,3-dione]
GI50: < 100 nM

CC(C)(C)OC(=O)CN1CC(n2cc(CNc3cccc4c3C(=O)N(C3CCC(=O)NC3=O)C4=O)cn2)C1 (stereo not drawn) [Compound 184, tert-butyl 2-(3-(4-(((2-(2,6-Dioxopiperidin-3-yl)-1,3-dioxoisoindolin-4-yl)amino)methyl)-1H-pyrazol-1-yl)azetidin-1-yl)acetate]
GI50: < 100 nM

O=C1CCC(N2C(=O)c3cccc(NCc4cnn(C5CCN(C(=O)C67CCC(C6)C7)CC5)c4)c3C2=O)C(=O)N1 (stereo not drawn) [Compound 97, 4-(((1-(1-(bicyclo[2.1.1]hexane-1-carbonyl)piperidin-4-yl)-1H-pyrazol-4-yl)methyl)amino)-2-(2,6-dioxopiperidin-3-yl)isoindoline-1,3-dione]
GI50: < 100 nM

O=C1CCC(N2C(=O)c3cccc(NCc4cnn(C5CCN(C(=O)C6CCC6)CC5)c4)c3C2=O)C(=O)N1 (stereo not drawn) [Compound 14, 4-(((1-(1-(cyclobutanecarbonyl)piperidin-4-yl)-1H-pyrazol-4-yl)methyl)amino)-2-(2,6-dioxopiperidin-3-yl)isoindoline-1,3-dione]
GI50: < 100 nM

CC1(C(=O)N2CCC(n3cc(CNc4cccc5c4C(=O)N(C4CCC(=O)NC4=O)C5=O)cn3)CC2)CC(F)(F)C1 (stereo not drawn) [Compound 74, 4-(((1-(1-(3,3-difluoro-1-methylcyclobutane-1-carbonyl)piperidin-4-yl)-1H-pyrazol-4-yl)methyl)amino)-2-(2,6-dioxopiperidin-3-yl)isoindoline-1,3-dione]
GI50: < 100 nM

O=C1CCC(N2C(=O)c3cccc(NCc4cnn(C5CCN(C(=O)C6CCCC6)CC5)c4)c3C2=O)C(=O)N1 (stereo not drawn) [Compound 32, 4-(((1-(1-(cyclopentanecarbonyl)piperidin-4-yl)-1H-pyrazol-4-yl)methyl)amino)-2-(2,6-dioxopiperidin-3-yl)isoindoline-1,3-dione]
GI50: < 100 nM

O=C1CCC(N2C(=O)c3cccc(NCc4cnn(C5CCN(C(=O)CN6CCOCC6)CC5)c4)c3C2=O)C(=O)N1 (stereo not drawn) [Compound 43, 2-(2,6-dioxopiperidin-3-yl)-4-(((1-(1-(2-morpholinoacetyl)piperidin-4-yl)-1H-pyrazol-4-yl)methyl)amino)isoindoline-1,3-dione]
GI50: < 100 nM

CC1(CN2CCC(n3cc(CNc4cccc5c4C(=O)N(C4CCC(=O)NC4=O)C5=O)cn3)CC2)CCCCC1 (stereo not drawn) [Compound 132, 2-(2,6-dioxopiperidin-3-yl)-4-(((1-(1-((1-methylcyclohexyl)methyl)piperidin-4-yl)-1H-pyrazol-4-yl)methyl)amino)isoindoline-1,3-dione]
GI50: < 100 nM

CC(C)(C)OC(=O)N1CCC(n2cc(C(Nc3cccc4c3C(=O)N(C3CCC(=O)NC3=O)C4=O)c3cn(C4CCN(C(=O)OC(C)(C)C)CC4)nn3)nn2)CC1 (stereo not drawn) [Compound 203, tert-Butyl 4-[4-[[1-(1-tert-butoxycarbonyl-4-piperidyl)triazol-4-yl]-[[2-(2,6-dioxo-3-piperidyl)-1,3-dioxo-isoindolin-4-yl]amino]methyl]triazol-1-yl]piperidine-1-carboxylate]
GI50: > 100 nM

O=C1CCC(N2C(=O)c3cccc(NCc4cnn(C5CCN(C(=O)C67CC8CC(CC(C8)C6)C7)CC5)c4)c3C2=O)C(=O)N1 (stereo not drawn) [Compound 44, 4-(((1-(1-(adamantane-1-carbonyl)piperidin-4-yl)-1H-pyrazol-4-yl)methyl)amino)-2-(2,6-dioxopiperidin-3-yl)isoindoline-1,3-dione]
GI50: < 1 nM

O=C1CCC(N2C(=O)c3cccc(NCc4cnn(C5CCN(C(=O)c6cnco6)CC5)c4)c3C2=O)C(=O)N1 (stereo not drawn) [Compound 7, 2-(2,6-dioxopiperidin-3-yl)-4-(((1-(1-(oxazole-5-carbnonyl)piperidin-4-yl)-1H-pyrazol-4-yl)methyl)amino)isoindoline-1,3-dione]
GI50: < 100 nM

O=C1CCC(N2C(=O)c3cccc(NCc4cnn(C5CCN(C(=O)C6(c7ccccc7)CC6)CC5)c4)c3C2=O)C(=O)N1 (stereo not drawn) [Compound 72, 2-(2,6-dioxopiperidin-3-yl)-4-(((1-(1-(1-phenylcyclopropane-1-carbonyl)piperidin-4-yl)-1H-pyrazol-4-yl)methyl)amino)isoindoline-1,3-dione]
GI50: < 100 nM

NC1(C(=O)N2CCC(n3cc(CNc4cccc5c4C(=O)N(C4CCC(=O)NC4=O)C5=O)cn3)CC2)CCC1 (stereo not drawn) [Compound 175, 4-[[1-[1-(1-aminocyclobutanecarbonyl)-4-piperidyl]pyrazol-4-yl]methylamino]-2-(2,6-dioxo-3-piperidyl)isoindoline-1,3-dione hydrochloride]
GI50: < 100 nM

COc1ccc(-c2cc(C(=O)N3CCC(n4cc(CNc5cccc6c5C(=O)N(C5CCC(=O)NC5=O)C6=O)cn4)CC3)ccn2)cc1 (stereo not drawn) [Compound 103, 2-(2,6-dioxopiperidin-3-yl)-4-(((1-(1-(2-(4-methoxyphenyl)isonicotinoyl)piperidin-4-yl)-1H-pyrazol-4-yl)methyl)amino)isoindoline-1,3-dione]
GI50: < 100 nM

CC1(C(=O)N2CCC(n3cc(CNc4cccc5c4C(=O)N(C4CCC(=O)NC4=O)C5=O)cn3)CC2)COC1 (stereo not drawn) [Compound 61, 2-(2,6-dioxopiperidin-3-yl)-4-(((1-(1-(3-methyloxetane-3-carbonyl)piperidin-4-yl)-1H-pyrazol-4-yl)methyl)amino)isoindoline-1,3-dione]
GI50: < 100 nM

Cn1cc(C(=O)N2CCC(n3cc(CNc4cccc5c4C(=O)N(C4CCC(=O)NC4=O)C5=O)cn3)CC2)cn1 (stereo not drawn) [Compound 34, 2-(2,6-dioxopiperidin-3-yl)-4-(((1-(1-(1-methyl-1H-pyrazole-4-carbonyl)piperidin-4-yl)-1H-pyrazol-4-yl)methyl)amino)isoindoline-1,3-dione]
GI50: < 100 nM

CC(C)(C)OC(=O)N1C2CCC1CC(n1cc(CNc3cccc4c3C(=O)N(C3CCC(=O)NC3=O)C4=O)cn1)C2 (stereo not drawn) [Compound 166, tert-Butyl 3-(4-(((2-(2,6-dioxopiperidin-3-yl)-1,3-dioxoisoindolin-4-yl)amino)methyl)-1H-pyrazol-1-yl)-8-azabicyclo[3.2.1]octane-8-carboxylate]
GI50: < 100 nM

O=C1CCC(N2C(=O)c3cccc(NCc4cnn(C5CCN(C(=O)CC6CC6)CC5)c4)c3C2=O)C(=O)N1 (stereo not drawn) [Compound 26, 4-(((1-(1-(2-cyclopropylacetyl)piperidin-4-yl)-1H-pyrazol-4-yl)methyl)amino)-2-(2,6-dioxopiperidin-3-yl)isoindoline-1,3-dione]
GI50: < 100 nM
